Data taken from patent publication US11958828B1, “4,5-bis(4-bromophenyl)-1-hexyl-2-(3-pyridyl)-1H-imidazole as an antimicrobial compound” (KING FAISAL UNIVERSITY, priority 2023, dated 2024).

Tests used:
Format in all cases: cell-based
Conditions in all cases: after 10, 20, 40 and 60 min at all dilutions 1:100, 1:200, 1:400, 1:800
[1] = test system: Escherichia coli; assay: Antimicrobial testing by agar dilution, Escherichia coli
Description: (§1) The antimicrobial properties of the 4,5-bis(4-bromophenyl)-1-hexyl-2-(3-Pyridyl)-1H-imidazole (5) were studied by the method of agar dilution. Test solutions of each compound were prepared in concentration of 1% using dimethylformamide as a solvent then they are diluted in physiological solution to obtain the final experimental dilutions 1:100, 1:200, 1:400, 1:800. The effect of these substances were compared with furacillin in a controllable study. The testing microbes used were gram positive bacteria Staphylococcus aureus, gram negative bacteria Escherichia coli, Pseudomonas aeruginosa and Candida albicans fungi were taken. The experiments used for this survey were meat-pentonlu agar (EPA) for cultivation of bacteria and Saburo environment for fungi. Each experiment used 1 ml of test solution on each plate 500 min. Add 2 drops of emulsified with microbes feel. All experimental samples were taken from the agar after 10, 20, 40, 60 minutes in the environment on the basis of Patrk planted. Bacteria were cultivated at a temperature of 37° C. for 1 day and the mushroom was kept in a thermostat for […] at a temperature of 28° C. in the. Then results were checked.

[2] = test system: Staphylococcus aureus; assay: Antimicrobial testing by agar dilution, Staphylococcus aureus
Description: as §1

[3] = test system: Pseudomonas aeruginosa; assay: Antimicrobial testing by agar dilution, Pseudomonas aeruginosa
Description: as §1

[4] = test system: Candida albicans; assay: Antimicrobial testing by agar dilution, Candida albicans
Description: as §1

Measured: inhibition activity (in words)

CCCCCCn1c(-c2cccnc2)nc(-c2ccc(Br)cc2)c1-c1ccc(Br)cc1 [4,5-bis(4-bromophenyl)-1-hexyl-2-(3-pyridyl)-1H-imidazole]
highest inhibition activity: [1] | [2] | [3] | [4]
